{"source": "patent US11952586B2", "about": "“B-cell cultivation method” (Hoffmann-La Roche Inc., priority 2017, dated 2024)", "molecules": {"B1": {"name": "IL-4: interleukin-4, cytokine added to the feeder mix (protein, UniProt P05112 25-153, looked up)", "Interleukin-4": "HKCDITLQEIIKTLNSLTEQKTLCTELTVTDIFAASKNTTEKETFCRAATVLRQFYSHHEKDTRCLGATAQQFHRHKQLIRFLKRLDRNLWGLAGLNSCPVKEANQSTLENFLERLKTIMREKYSKCSS"}}, "key": {"[1]": {"tested_on": "hamster B-cells", "assay": "co-cultivation of hamster B-cells with feeder mix additives", "type": "cell-based", "protocol": "(§1) Thus, in one embodiment of all methods as reported herein the feeder mix for the co-cultivation of murine- or hamster-B-cells comprises IL-4.\n(§2) Thus, in one embodiment of all methods as reported herein the feeder mix for the co-cultivation of murine-B-cells or hamster-B-cells comprises IL-6. In one embodiment the IL-6 is added at a concentration of 50 ng/ml. In one embodiment IL-6 is added at a concentration of 10 ng/ml, if high IgG-concentration is required. In one embodiment the addition of IL-6 is after three days of co-cultivation of the selected B-cells and EL-4 B5 cells."}, "[2]": {"tested_on": "murine B-cells", "assay": "co-cultivation of murine B-cells with feeder mix additives", "type": "cell-based", "protocol": "as §1, §2"}, "[3]": {"tested_on": "single deposited B-cells", "assay": "co-cultivation of single deposited B-cells with EL-4 B5 feeder cells; IgG in supernatant by ELISA", "type": "cell-based, rabbit", "conditions": "addition of PAP-1 to the co-cultivation", "protocol": "Single cell sorted B-cells were cultured in 96-well plates with 200 μl/well EL-4 B5 medium with Pansorbin Cells (SAC) (Calbiochem (Merck), Darmstadt, Deutschland), EL-4 B5 cells (0-5×10^4/well) and rabbit thymocyte supernatant or cytokine mix, respectively, for 7 days at 37° C. in an atmosphere of 5% CO2 in the incubator. B-cell culture supernatants were removed for screening and the cells harvested immediately for variable region gene cloning or frozen at −80° C. in 100 μl RLT buffer (Qiagen, Hilden, Germany).\nA mixture of 0.5 μg/ml of biotinylated mouse anti-rabbit IgG antibody (Sigma-Aldrich) and 0.35 μg/ml anti-rabbit IgG HRP conjugate (Sigma-Aldrich) was transferred to 384 well streptavidin coated microtiter plates (MicroCoat Biotechnologie GmbH). Dilutions of B-cell supernatants in PBS supplemented with 0.5% BSA and 0.05% Tween®-20 were added and incubated for 90 min at RT. After repeated washing (6×) with PBST (phosphate buffered saline with 0.2% Tween buffer the plates were developed with BM Blue® HRP substrate solution and color formation was measured by absorbance at 370 nm. A commercial rabbit IgG (Sigma-Aldrich) was used as a calibration standard."}}}
{"molecule": "IL-6: interleukin-6, cytokine added to the feeder mix", "values": [{"measurement": "IgG-concentration", "setting": "[1]; addition of IL-6 to the feeder mix, hamster-B-cells", "result": "increased IgG-concentration"}, {"measurement": "number of IgG+-wells/cell clones", "setting": "[2]; addition of IL-6 to the feeder mix, murine-B-cells", "result": "increased number of IgG^+-wells/cell clones"}]}
{"molecule": "O=c1ccc2c(OCCCCOc3ccccc3)c3ccoc3cc2o1", "note": "[PAP-1, 5-(4-phenoxybutoxy) psoralene]", "values": [{"measurement": "number of B-cell clones", "setting": "[3]", "result": "without decreasing the number of B-cell clones"}, {"measurement": "rbIgG secretion of B-cells", "setting": "[3]", "result": "increases the rbIgG secretion of B-cells in a concentration dependent manner"}]}
{"molecule": "B1", "values": [{"measurement": "number of IgG+-wells/cell clones and IgG-concentration in the supernatant", "setting": "[1]; addition of IL-4 to the feeder mix, hamster B-cells", "result": "increases the number of IgG^+-wells/cell clones as well as the IgG-concentration in the supernatant"}, {"measurement": "number of IgG+-wells/cell clones and IgG-concentration in the supernatant", "setting": "[2]; addition of IL-4 to the feeder mix, murine B-cells", "result": "increases the number of IgG^+-wells/cell clones as well as the IgG-concentration in the supernatant"}]}
